In paper PMC5400251, “Effect of quinoline based 1,2,3-triazole and its structural analogues on growth and virulence attributes of Candida albicans” (PLoS ONE, 2017):
Read-outs that look alike come from different tables or passages of the source.

Tests used:
[1] = molecular target: T1, plasma membrane H+ ATPase (Candida albicans, UniProt P28877); test: Proton extrusion measurement (H+ efflux); type: cell-based, C. albicans ATCC 90028
T1 construct: endogenous in cells; host or cells: C. albicans ATCC 90028; clinical isolates C. albicans D27 (FLC-susceptible) and D15.9 (FLC-resistant); mid-log phase whole cells
Procedure: The proton pumping activity of C. albicans was determined by monitoring acidification of external medium by measuring pH as describe earlier. In brief, the mid-log phase cells were harvested from SD medium by centrifugation at 3000 rpm for 15 min which is followed by three washings with phosphate buffer saline (PBS). A solution containing 0.1 M KCl and 0.1 mM CaCl2 in distilled water was prepared. Compounds 3a and 3b at the concentrations of 50 and 100 μg/mL were separately added in this solution. […] Initial pH was adjusted to 7.0 using 0.01 M HCl/NaOH. Approximately 0.2 g of cells were suspended in each set of solution. Suspension was kept in a double-jacketed glass container with constant stirring. Again, the pH of suspension was maintained as 7.0 for 1 min by using 0.01 N NaOH. The rate of H^+ extrusion was then monitored and calculated from the volume of 0.01 N NaOH consumed per min per mg weight of cells. Glucose has been reported as the stimulator of proton extrusion pump. Therefore above experiment was also repeated in the presence of 5 mM of glucose.

[2] = system: C. albicans D27 (FLC-susceptible); test: Growth assay (growth curve); type: cell-based; conditions: sub-MIC (MIC/2)
Procedure: (§1) The C. albicans cells were freshly revived by subculture on the SD agar plate. A loopful of inoculum was introduced into the SD broth and cells were grown for 16 h at 37°C before use. Approximately 2×10^3 cells/mL were then inoculated into the freshly prepared 50 mL sterile SD medium. […] At predetermined time periods (0, 2, 4, 6, 8, 10, 12, 14, 16, 18, 20 22, and 24 after incubation with agitation at 37°C), 1 mL aliquot of each sample was removed from the conical flask and growth was measured tubidometrically at 600 nm using Thermo Multiskan spectrophotometer. Optical density was recorded for each concentration against time (h).

[3] = system: C. albicans D15.9 (FLC-resistant); test: Growth assay (growth curve); type: cell-based; conditions: sub-MIC (MIC/2)
Procedure: as §1

[4] = system: C. albicans ATCC 90028 (Standard); test: Growth assay (growth curve); type: cell-based; conditions: sub-MIC (MIC/2)
Procedure: as §1

[5] = 50 μg/mL in presence of glucose (5 mM)
[6] = 100 μg/mL in presence of glucose (5 mM)
[7] = 100 μg/mL, no glucose, read-out: Inhibition of H+ extrusion
[8] = in the presence of glucose (5 mM), 100 μg/mL, read-out: Inhibition of H+ extrusion rate

T1 sequence (P28877 whole entry): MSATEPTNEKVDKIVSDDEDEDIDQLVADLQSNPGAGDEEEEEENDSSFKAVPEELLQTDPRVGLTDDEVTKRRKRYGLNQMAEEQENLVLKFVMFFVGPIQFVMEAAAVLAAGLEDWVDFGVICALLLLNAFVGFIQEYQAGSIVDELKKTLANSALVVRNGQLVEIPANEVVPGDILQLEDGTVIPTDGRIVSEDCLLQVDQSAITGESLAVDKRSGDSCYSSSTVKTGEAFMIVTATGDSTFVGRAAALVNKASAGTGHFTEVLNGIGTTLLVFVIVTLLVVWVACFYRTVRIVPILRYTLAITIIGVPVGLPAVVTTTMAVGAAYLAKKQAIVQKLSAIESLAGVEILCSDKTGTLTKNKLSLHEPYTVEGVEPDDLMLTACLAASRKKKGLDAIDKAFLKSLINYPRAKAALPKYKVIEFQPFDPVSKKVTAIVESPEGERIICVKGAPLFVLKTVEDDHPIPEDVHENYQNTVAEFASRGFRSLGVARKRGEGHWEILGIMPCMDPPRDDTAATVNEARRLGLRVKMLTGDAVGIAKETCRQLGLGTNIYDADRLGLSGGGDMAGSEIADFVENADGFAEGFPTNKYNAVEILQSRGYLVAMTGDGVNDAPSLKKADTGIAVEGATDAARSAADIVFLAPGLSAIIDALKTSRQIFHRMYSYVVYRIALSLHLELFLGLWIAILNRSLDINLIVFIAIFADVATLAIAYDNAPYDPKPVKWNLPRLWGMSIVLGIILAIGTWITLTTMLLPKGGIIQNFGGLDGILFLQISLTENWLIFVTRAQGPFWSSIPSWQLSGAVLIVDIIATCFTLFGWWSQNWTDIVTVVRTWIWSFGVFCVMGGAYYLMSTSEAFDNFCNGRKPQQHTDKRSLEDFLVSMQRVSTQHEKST

Compound	Range of relative H+ efflux rate [1, 5]	Range of relative H+ efflux rate ([1]; 50 μg/mL, no glucose)	Range of relative H+ efflux rate [1, 6]	Range of relative H+ efflux rate ([1]; 100 μg/mL, no glucose)	inhibition at 100 µg/mL [1, 7]	inhibition at 100 µg/mL [1, 8]	Time after which growth was observed [2]	Time after which growth was observed [3]	Time after which growth was observed [4]	melting point
Clc1ccc(OCc2cn(Cc3ccccc3)nn2)c2ncccc12 [Compound 3b, 8-((1-Benzyl-1H-1,2,3-triazol-4-yl)methoxy)-5-chloroquinoline]	23.30 ± 1.1 ×10^−6 mol min^−1 mg cells^−1	23.40 ± 1.1 ×10^−6 mol min^−1 mg cells^−1	20.00 ± 1.0 ×10^−6 mol min^−1 mg cells^−1	19.30 ± 0.9 ×10^−6 mol min^−1 mg cells^−1	47%	64%	18 h	14 h	20 h	148 to 149 °C
c1ccc(Cn2cc(COc3cccc4cccnc34)nn2)cc1 [Compound 3a]	33.40 ± 1.6 ×10^−6 mol min^−1 mg cells^−1	19.60 ± 0.9 ×10^−6 mol min^−1 mg cells^−1	26.60 ± 1.3 ×10^−6 mol min^−1 mg cells^−1	11.00 ± 0.5 ×10^−6 mol min^−1 mg cells^−1	70%	52%	–	–	–	–
